Test results as given in patent publication US9931347B2, “Pharmaceutical compound” (IOmet Pharma Ltd., priority 2013, dated 2018).

How the values were obtained:
[1] = target: T1, IDO (SKOV3 human ovarian adenocarcinoma cells, IFN-γ induced) (Homo sapiens, UniProt P14902); test: SKOV3 Kynurenine cell based assay; settings: IDO induced by 500 ng/ml IFN-γ, 500 μM L-tryptophan, 48 hours
T1 construct: IDO expression was induced in the SKOV3 cells by the addition of 500 ng/ml IFN-γ; endogenous in cells; host or cells: SKOV3 human ovarian adenocarcinoma cells, induced with IFN-γ
T1 sequence (P14902 whole entry): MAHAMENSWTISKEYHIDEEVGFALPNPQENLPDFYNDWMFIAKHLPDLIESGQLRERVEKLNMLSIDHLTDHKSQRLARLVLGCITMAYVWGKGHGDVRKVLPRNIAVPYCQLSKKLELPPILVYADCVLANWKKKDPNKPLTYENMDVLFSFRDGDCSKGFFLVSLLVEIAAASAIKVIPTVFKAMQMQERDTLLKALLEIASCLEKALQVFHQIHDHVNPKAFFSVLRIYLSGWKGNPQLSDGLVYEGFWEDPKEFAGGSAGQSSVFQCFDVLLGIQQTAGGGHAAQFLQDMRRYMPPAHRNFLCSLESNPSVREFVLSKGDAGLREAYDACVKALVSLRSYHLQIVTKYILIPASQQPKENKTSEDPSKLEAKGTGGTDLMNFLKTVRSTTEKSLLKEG
Protocol: (§1) Exemplary compounds of the invention were prepared, and tested to determine their effect as TDO and/or IDO inhibitors. Two different assays were employed: 1. a cell-based assay for detecting the effect of test compounds on kynurenine production in two different cancer cell types. This assay utilised cancer cells which expressed either TDO or IDO and as such was used as a means of testing compound activity at these two enzymes in a cell-based context. 2. a TDO and IDO biochemical coupled assay which utilised recombinantly produced and purified TDO and IDO enzymes in combination with the enzyme formamidase. This coupled enzyme system allowed conversion of N-formylkynurenine produced by TDO or IDO activity to kynurenine which was then quantified by fluorescence following addition of Erhlich's Reagent The protocols for these are set out below.
(§2) A172 (human glioblastoma) and SKOV3 (human ovarian adenocarcinoma) cells were seeded in a 96 well plate at 30,000 or 40,000 cells per well respectively in phenol red-free RPMI supplemented with 10% FCS, 2 mM L-glutamine and 500 μM L-tryptophan. IDO expression was induced in the SKOV3 cells by the addition of 500 ng/ml IFN-γ. Cells were incubated at 37° C. with or without the addition of test compound. After 48 hours, the cells were removed by centrifugation and Erhlich's reagent was added to the supernatant.

Recombinant human IDO = Recombinant human IDO (Homo sapiens, UniProt P14902); test: hIDO biochemical coupled assay; settings: 45 μM L-tryptophan, coupled with kynurenine formamidase
Recombinant human IDO, sequence (P14902 whole entry): as above
Protocol: as §1
Recombinant human IDO or TDO was incubated in 50 mM KPO4 (pH 7.0), 0.5 mM EGTA, 0.5 mM EDTA, 0.05% Triton™ X100, 20 mM ascorbate, 10 μM methylene blue, 500 U/ml catalase, 50 μg/ml KynB (kynurenine formamidase).

[2] = target: T2, TDO (A172 human glioblastoma cells) (Homo sapiens, UniProt P48775); test: A172 Kynurenine cell based assay; settings: 500 μM L-tryptophan, 48 hours, kynurenine by Erhlich's reagent
T2 construct: This assay utilised cancer cells which expressed either TDO or IDO; endogenous in cells; host or cells: A172 human glioblastoma cells
T2 sequence (P48775 whole entry): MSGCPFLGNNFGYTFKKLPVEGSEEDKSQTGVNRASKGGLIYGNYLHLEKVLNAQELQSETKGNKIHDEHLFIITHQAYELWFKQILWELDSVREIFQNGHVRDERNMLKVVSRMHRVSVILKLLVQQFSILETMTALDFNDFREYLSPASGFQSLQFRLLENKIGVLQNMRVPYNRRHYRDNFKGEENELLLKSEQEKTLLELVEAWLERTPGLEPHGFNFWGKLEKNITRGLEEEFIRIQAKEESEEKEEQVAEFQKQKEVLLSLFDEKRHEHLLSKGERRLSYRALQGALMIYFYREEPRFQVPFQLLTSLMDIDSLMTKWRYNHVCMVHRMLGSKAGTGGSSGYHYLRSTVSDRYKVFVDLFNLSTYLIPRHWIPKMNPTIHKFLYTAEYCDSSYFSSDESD
Protocol: as §1
as §2, with “supernatant. The Erhlich's reagent was incubated for 5 minutes before the absorbance was read at 490 nm.” for “supernatant.”

SKOV3 Kynurenine cell based assay pIC50 [1]	hIDO biocehmical assay pIC50 (Recombinant human IDO)	A172 Kynurenine cell based assay pIC50 [2]	SMILES
+− (+− = pIC50 <4.00)	+− (+− = pIC50 <4.00)	+ (+ = pIC50 4.00-4.99)	Cc1cccc2c(C3CCN(S(=O)(=O)c4cc(F)c(F)cc4Cl)CC3)c[nH]c12 [Compound 38]
+ (+ = pIC50 4.00-4.99)	+− (+− = pIC50 <4.00)	+ (+ = pIC50 4.00-4.99)	Cc1cc(S(=O)(=O)N2CCC(c3c[nH]c4ccc(F)cc34)CC2)c(Cl)cc1Cl [Compound 39]
+− (+− = pIC50 <4.00)	+− (+− = pIC50 <4.00)	+ (+ = pIC50 4.00-4.99)	Cc1cccc2c(C3CCN(S(=O)(=O)c4ccc(C(C)(C)C)cc4)CC3)c[nH]c12 [Compound 40]
+ (+ = pIC50 4.00-4.99)	+− (+− = pIC50 <4.00)	+ (+ = pIC50 4.00-4.99)	Cc1cccc2c(C3CCN(C(=O)c4cnn(-c5ccccc5)c4C(F)(F)F)CC3)c[nH]c12 [Compound 41]
+ (+ = pIC50 4.00-4.99)	+− (+− = pIC50 <4.00)	+ (+ = pIC50 4.00-4.99)	COc1ccc2[nH]cc(C3CCN(S(=O)(=O)c4ccc(C(F)(F)F)cc4Cl)CC3)c2c1 [Compound 43]
+ (+ = pIC50 4.00-4.99)	+− (+− = pIC50 <4.00)	+ (+ = pIC50 4.00-4.99)	COc1ccc(Cl)cc1S(=O)(=O)N1CCC(c2c[nH]c3c(C)cccc23)CC1 [Compound 45]
+− (+− = pIC50 <4.00)	+− (+− = pIC50 <4.00)	+ (+ = pIC50 4.00-4.99)	Cc1cccc2c(C3CCN(S(=O)(=O)c4cccc(C(F)(F)F)c4)CC3)c[nH]c12 [Compound 46]
+ (+ = pIC50 4.00-4.99)	+− (+− = pIC50 <4.00)	+ (+ = pIC50 4.00-4.99)	CCCc1ccc(S(=O)(=O)N2CCC(c3c[nH]c4c(C)cccc34)CC2)cc1 [Compound 48]
+ (+ = pIC50 4.00-4.99)	+− (+− = pIC50 <4.00)	++ (++ = pIC50 5.00-5.99)	Cc1cccc2c(C3CCN(S(=O)(=O)c4ccccc4S(C)(=O)=O)CC3)c[nH]c12 [Compound 49]
+ (+ = pIC50 4.00-4.99)	+− (+− = pIC50 <4.00)	+ (+ = pIC50 4.00-4.99)	CCc1cc(Br)ccc1S(=O)(=O)N1CCC(c2c[nH]c3ccc(C)cc23)CC1 [Compound 50]
+ (+ = pIC50 4.00-4.99)	+− (+− = pIC50 <4.00)	+ (+ = pIC50 4.00-4.99)	O=S(=O)(c1ccccc1OC(F)(F)F)N1CCC(c2c[nH]c3ccc(F)cc23)CC1 [Compound 51]
+ (+ = pIC50 4.00-4.99)	+− (+− = pIC50 <4.00)	+− (+− = pIC50 <4.00)	CC(=O)Nc1ccc(S(=O)(=O)N2CCC(c3c[nH]c4ccccc34)CC2)cc1Cl [Compound 52]
+ (+ = pIC50 4.00-4.99)	+− (+− = pIC50 <4.00)	+ (+ = pIC50 4.00-4.99)	COc1ccc2[nH]cc(C3CCN(S(=O)(=O)c4cccc(OC(F)(F)F)c4)CC3)c2c1 [Compound 53]
+− (+− = pIC50 <4.00)	+− (+− = pIC50 <4.00)	+ (+ = pIC50 4.00-4.99)	CC(=O)N1CCN(c2c[nH]c3ccccc23)CC1 [Compound 107]
+− (+− = pIC50 <4.00)	+− (+− = pIC50 <4.00)	+ (+ = pIC50 4.00-4.99)	CS(=O)(=O)N1CCN(c2c[nH]c3ccccc23)CC1 [Compound 108]
+ (+ = pIC50 4.00-4.99)	+− (+− = pIC50 <4.00)	+ (+ = pIC50 4.00-4.99)	CC(=O)N1CC=C(c2c[nH]c3ccc(OCc4ccccc4)cc23)CC1 [Compound 155]

SKOV3 Kynurenine cell based assay pIC50 [1]	hIDO biocehmical assay pIC50 (Recombinant human IDO)	A172 Kynurenine cell based assay pIC50 [2]	SMILES
+ (+ = pIC50 4.00-4.99)	+− (+− = pIC50 <4.00)	+ (+ = pIC50 4.00-4.99)	CC(=O)N1CC=C(c2c[nH]c3cc(OCc4ccccc4)ccc23)CC1 [Compound 156]
+ (+ = pIC50 4.00-4.99)	+− (+− = pIC50 <4.00)	+ (+ = pIC50 4.00-4.99)	CC(=O)N1CC=C(c2c[nH]c3cccnc23)CC1 [Compound 157]
+− (+− = pIC50 <4.00)	+− (+− = pIC50 <4.00)	+ (+ = pIC50 4.00-4.99)	CC(=O)N1CCC(c2c[nH]c3ccc(F)cc23)CC1 [Compound 158]
+− (+− = pIC50 <4.00)	+− (+− = pIC50 <4.00)	++ (++ = pIC50 5.00-5.99)	CS(=O)(=O)N1CCC(c2c[nH]c3ccc(F)cc23)CC1 [Compound 159]
+ (+ = pIC50 4.00-4.99)	+− (+− = pIC50 <4.00)	+− (+− = pIC50 <4.00)	Cc1[nH]c2ccccc2c1C1=CCN(S(C)(=O)=O)CC1 [Compound 160]
+ (+ = pIC50 4.00-4.99)	+− (+− = pIC50 <4.00)	+− (+− = pIC50 <4.00)	Cc1[nH]c2ccccc2c1C1CCN(S(C)(=O)=O)CC1 [Compound 161]
+ (+ = pIC50 4.00-4.99)	+− (+− = pIC50 <4.00)	+ (+ = pIC50 4.00-4.99)	COc1cccc2[nH]cc(C3=CCN(C(C)=O)CC3)c12 [Compound 169]
+ (+ = pIC50 4.00-4.99)	+− (+− = pIC50 <4.00)	++ (++ = pIC50 5.00-5.99)	CS(=O)(=O)N1CC=C(c2c[nH]c3ccncc23)CC1 [Compound 170]
+− (+− = pIC50 <4.00)	+− (+− = pIC50 <4.00)	++ (++ = pIC50 5.00-5.99)	CS(=O)(=O)N1CC=C(c2c[nH]c3cnccc23)CC1 [Compound 171]
+ (+ = pIC50 4.00-4.99)	+− (+− = pIC50 <4.00)	+ (+ = pIC50 4.00-4.99)	CC(=O)N1CC=C(c2c[nH]c3ccncc23)CC1 [Compound 172]
++ (++ = pIC50 5.00-5.99)	+− (+− = pIC50 <4.00)	+ (+ = pIC50 4.00-4.99)	Fc1ccc2c(C3CCN(c4ncccn4)CC3)c[nH]c2c1 [Compound 180]
+− (+− = pIC50 <4.00)	+− (+− = pIC50 <4.00)	++ (++ = pIC50 5.00-5.99)	CC(=O)N1CCCC(c2c[nH]c3cc(F)ccc23)CC1 (stereo not drawn) [Compound 181]
+ (+ = pIC50 4.00-4.99)	+− (+− = pIC50 <4.00)	++ (++ = pIC50 5.00-5.99)	CS(=O)(=O)N1CCCC(c2c[nH]c3cc(F)ccc23)CC1 (stereo not drawn) [Compound 182]
+ (+ = pIC50 4.00-4.99)		+ (+ = pIC50 4.00-4.99)	Fc1ccc2c(C3CCN(c4ccncc4)CC3)c[nH]c2c1 [Compound 301]
+ (+ = pIC50 4.00-4.99)		++ (++ = pIC50 5.00-5.99)	CC(=O)N1CCC(c2c[nH]c3cc(F)ccc23)CC1(C)C (stereo not drawn) [Compound 316]
+ (+ = pIC50 4.00-4.99)		++ (++ = pIC50 5.00-5.99)	CC1(C)CC(c2c[nH]c3cc(F)ccc23)CCN1S(C)(=O)=O (stereo not drawn) [Compound 317]
